Experimental data as given in ChEMBL document CHEMBL1201862, “PubChem BioAssay data set” (2004).
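Five concentrations, 48 hours, 96-well plates. The concentration for 50% growth inhibition is given as GI50.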 Activity calls are given as the source filed them. No stated cut-off is given here; in the data, active = GI50 up to about 1.1 µM and inactive = higher.

Key:
Assay in all cases: NCI anticancer screen, dose series, 48 h
[1] = test system: SNB-19
[2] = test system: SN12C
[3] = test system: HOP-92
[4] = test system: LOX IMVI
[5] = test system: SK-MEL-2
[6] = test system: RPMI-8226
[7] = test system: A498
[8] = test system: COLO 205
[9] = test system: SF-295
[10] = test system: CAKI-1
[11] = test system: MOLT-4
[12] = test system: HL-60
[13] = test system: TK-10
[14] = test system: SF-268
[15] = test system: MDA-MB-231
[16] = test system: RXF 393
[17] = test system: HCC 2998
[18] = test system: EKVX
[19] = test system: Malme-3M
[20] = test system: NCI/ADR-RES

SMILES	GI50 [1]	GI50 [2]	GI50 [3]	GI50 [4]	GI50 [5]	GI50 [6]	GI50 [7]	GI50 [8]	GI50 [9]	GI50 [10]	GI50 [11]	GI50 [12]	GI50 [13]	GI50 [14]	GI50 [15]	GI50 [16]	GI50 [17]	GI50 [18]	GI50 [19]	GI50 [20]
OC1CSCCSCCCSCCSC1	> 100 µM (inactive)	> 100 µM (inactive)	> 100 µM (inactive)	> 100 µM (inactive)	> 100 µM (inactive)	> 100 µM (inactive)	> 100 µM (inactive)	> 100 µM (inactive)	> 100 µM (inactive)	> 100 µM (inactive)	> 100 µM (inactive)	50.2 µM (inactive)	> 100 µM (inactive)	> 100 µM (inactive)	> 100 µM (inactive)	> 100 µM (inactive)	> 100 µM (inactive)	> 100 µM (inactive)	–	–
Cc1ccc(-c2c(C#N)c(N)nc3c2CCS(=O)(=O)c2ccccc2-3)cc1	50.7 µM (inactive)	81.8 µM (inactive)	34.1 µM (inactive)	> 100 µM (inactive)	49.1 µM (inactive)	> 100 µM (inactive)	> 100 µM (inactive)	> 100 µM (inactive)	–	> 100 µM (inactive)	–	–	59.7 µM (inactive)	83.4 µM (inactive)	> 100 µM (inactive)	–	> 100 µM (inactive)	–	39.4 µM (inactive)	85.9 µM (inactive)
O=P(O)(O)CN1CCN(CP(=O)(O)O)CCN(CP(=O)(O)O)CCN(CP(=O)(O)O)CC1	> 100 µM (inactive)	> 100 µM (inactive)	38.3 µM (inactive)	> 100 µM (inactive)	32.8 µM (inactive)	21.2 µM (inactive)	62.5 µM (inactive)	32.4 µM (inactive)	> 100 µM (inactive)	> 100 µM (inactive)	41.3 µM (inactive)	25.4 µM (inactive)	55.5 µM (inactive)	> 100 µM (inactive)	> 100 µM (inactive)	47.4 µM (inactive)	88.7 µM (inactive)	> 100 µM (inactive)	–	> 100 µM (inactive)
CC1(C)C[C@H]2C=C(C=O)[C@]34C[C@]3(C(=O)OC4O)[C@H]2C1 (stereo partly specified)	11.4 µM (inactive)	3.86 µM (inactive)	2.17 µM (inactive)	1.24 µM (inactive)	1.72 µM (inactive)	4.54 µM (inactive)	3.06 µM (inactive)	0.374 µM (active)	1.55 µM (inactive)	1.59 µM (inactive)	1.53 µM (inactive)	1.92 µM (inactive)	1.77 µM (inactive)	1.61 µM (inactive)	1.48 µM (inactive)	–	2.95 µM (inactive)	1.61 µM (inactive)	1.73 µM (inactive)	–
COCCOc1nc(-c2ccccc2)nc2ccccc12	69.2 µM (inactive)	27.5 µM (inactive)	27.6 µM (inactive)	47.8 µM (inactive)	51.8 µM (inactive)	15.7 µM (inactive)	15 µM (inactive)	32.6 µM (inactive)	43.1 µM (inactive)	34.7 µM (inactive)	20.6 µM (inactive)	29.2 µM (inactive)	36 µM (inactive)	27.7 µM (inactive)	31 µM (inactive)	11.7 µM (inactive)	–	55.8 µM (inactive)	51.1 µM (inactive)	32.6 µM (inactive)
O=C(Cc1ccccc1)NN1C(=O)/C(=C\c2ccc(O)cc2)S/C1=N\c1ccccc1	> 100 µM (inactive)	> 100 µM (inactive)	21.6 µM (inactive)	–	> 100 µM (inactive)	> 100 µM (inactive)	> 100 µM (inactive)	> 100 µM (inactive)	> 100 µM (inactive)	–	95.5 µM (inactive)	> 100 µM (inactive)	> 100 µM (inactive)	> 100 µM (inactive)	> 100 µM (inactive)	> 100 µM (inactive)	> 100 µM (inactive)	> 100 µM (inactive)	–	> 100 µM (inactive)
O=C(O)CN1C(=O)OC(c2ccccc2)C1=O (stereo unspecified)	> 100 µM (inactive)	> 100 µM (inactive)	> 100 µM (inactive)	> 100 µM (inactive)	> 100 µM (inactive)	> 100 µM (inactive)	> 100 µM (inactive)	> 100 µM (inactive)	> 100 µM (inactive)	> 100 µM (inactive)	> 100 µM (inactive)	> 100 µM (inactive)	> 100 µM (inactive)	> 100 µM (inactive)	> 100 µM (inactive)	> 100 µM (inactive)	–	> 100 µM (inactive)	> 100 µM (inactive)	> 100 µM (inactive)
O=Cc1cccc2ccc3ccccc3c12	7.8 µM (inactive)	20.5 µM (inactive)	–	11.3 µM (inactive)	15.1 µM (inactive)	–	22.4 µM (inactive)	18.7 µM (inactive)	17.1 µM (inactive)	16.1 µM (inactive)	–	–	14.3 µM (inactive)	11.5 µM (inactive)	17 µM (inactive)	16.3 µM (inactive)	26.2 µM (inactive)	–	16.4 µM (inactive)	8.45 µM (inactive)
N/C(S)=N/N=C/c1ccc(O)cn1	12.9 µM (inactive)	5.35 µM (inactive)	4.68 µM (inactive)	5.13 µM (inactive)	–	10.7 µM (inactive)	32 µM (inactive)	–	20.4 µM (inactive)	–	–	4.12 µM (inactive)	105 µM (inactive)	4.3 µM (inactive)	18.5 µM (inactive)	–	13.6 µM (inactive)	14.5 µM (inactive)	7.55 µM (inactive)	4.01 µM (inactive)
CCCCN(CC)c1nc(C)nc2c1c(C)c(C)n2-c1c(C)cc(C)cc1C [ANTALARMIN]	16.4 µM (inactive)	22 µM (inactive)	9.35 µM (inactive)	15.6 µM (inactive)	12.9 µM (inactive)	7.87 µM (inactive)	16.9 µM (inactive)	15.6 µM (inactive)	14.3 µM (inactive)	13.9 µM (inactive)	10.9 µM (inactive)	4.1 µM (inactive)	17.4 µM (inactive)	17.4 µM (inactive)	14.2 µM (inactive)	6.93 µM (inactive)	–	14.2 µM (inactive)	15.9 µM (inactive)	13.6 µM (inactive)
Cc1ccc(S(=O)(=O)NCCSCCNS(=O)(=O)c2ccc(C)cc2)cc1	> 100 µM (inactive)	> 100 µM (inactive)	> 100 µM (inactive)	> 100 µM (inactive)	–	–	> 100 µM (inactive)	> 100 µM (inactive)	> 100 µM (inactive)	–	> 100 µM (inactive)	–	> 100 µM (inactive)	> 100 µM (inactive)	> 100 µM (inactive)	> 100 µM (inactive)	> 100 µM (inactive)	–	–	> 100 µM (inactive)
COc1ccc2cc(/C=N\NC(=O)Nc3cccc4ccccc34)ccc2c1	22 µM (inactive)	36.6 µM (inactive)	–	33.9 µM (inactive)	25.7 µM (inactive)	–	17.5 µM (inactive)	46.7 µM (inactive)	–	23.8 µM (inactive)	34.1 µM (inactive)	> 10 µM (inactive)	22 µM (inactive)	52.6 µM (inactive)	27 µM (inactive)	38.5 µM (inactive)	> 100 µM (inactive)	30.6 µM (inactive)	97.7 µM (inactive)	> 100 µM (inactive)
CC1(c2nc3ccccc3[nH]2)CCC(CO)C(C)(C)O1 (stereo unspecified)	> 100 µM (inactive)	> 100 µM (inactive)	> 100 µM (inactive)	> 100 µM (inactive)	> 100 µM (inactive)	> 100 µM (inactive)	–	> 100 µM (inactive)	> 100 µM (inactive)	> 100 µM (inactive)	> 100 µM (inactive)	> 100 µM (inactive)	> 100 µM (inactive)	> 100 µM (inactive)	> 100 µM (inactive)	> 100 µM (inactive)	> 100 µM (inactive)	> 100 µM (inactive)	> 100 µM (inactive)	> 100 µM (inactive)
CC(C)CCNC(=O)c1ccc(CNC(=O)/C=C/c2ccc(OCc3ccccc3)cc2)cc1	> 100 µM (inactive)	> 100 µM (inactive)	> 100 µM (inactive)	> 100 µM (inactive)	> 100 µM (inactive)	> 100 µM (inactive)	> 100 µM (inactive)	> 100 µM (inactive)	> 100 µM (inactive)	> 100 µM (inactive)	> 100 µM (inactive)	–	–	> 100 µM (inactive)	> 100 µM (inactive)	> 100 µM (inactive)	> 100 µM (inactive)	–	–	> 100 µM (inactive)
COc1cccc(Nc2nc(-c3cccs3)nc3ccc(Br)cc23)c1	25.5 µM (inactive)	> 100 µM (inactive)	31.4 µM (inactive)	> 100 µM (inactive)	> 100 µM (inactive)	1.67 µM (inactive)	> 100 µM (inactive)	> 100 µM (inactive)	36.6 µM (inactive)	33.7 µM (inactive)	–	> 100 µM (inactive)	36.7 µM (inactive)	41.8 µM (inactive)	37.8 µM (inactive)	–	–	> 100 µM (inactive)	72.9 µM (inactive)	40.5 µM (inactive)
COc1ccc(N2C(=O)c3c4c(c5c([nH]c6ncccc65)c3C2=O)CCC(C(C)(C)C)C4)cc1 (stereo unspecified)	65.3 µM (inactive)	> 100 µM (inactive)	–	–	–	> 100 µM (inactive)	–	> 100 µM (inactive)	45.6 µM (inactive)	–	> 10 µM (inactive)	> 100 µM (inactive)	66.4 µM (inactive)	72.6 µM (inactive)	> 100 µM (inactive)	34.6 µM (inactive)	> 100 µM (inactive)	> 100 µM (inactive)	–	> 100 µM (inactive)
